42 compounds from patent US20240368096A1 (Enanta Pharmaceuticals, Inc., priority 2022, published 2024) can be followed below.

The test system of this assay is HBV. Description: HBV infection in HepG2-NTCP cells (HBeAg AlphaLISA in supernatants). It counts as cell-based. Conditions: Hepatitis B virus, 192 h; HBV infection of HepG2-NTCP cells; HBeAg in supernatants at day 8 post infection; read-out: Cellular EC50. As for the experimental part: HepG2-NTCP A3 cells were maintained in DMEM media supplemented with GlutaMAX™ 10% fetal bovine serum, 1% penicillin/streptomycin, and 5 μg/mL puromycin at 37° C. in a humidified atmosphere with 5% CO2 in a collagen-coated tissue culture flask.
HepG2-NTCP cells were seeded in 384 well plate containing 16,000 cells/well two days prior to the infection. On the day of infection, compounds were 3-fold serially diluted in DMSO and pre-incubated with HepG2-NTCP cells for two hours before purified HBV addition. HBV infection was carried out at 2000 GE/cell with 4% PEG, and the final concentration of DMSO is 0.5%. On day one post infection, HBV-containing media was aspirated, cells were washed once with PBS and then maintained in 2.5% DMSO containing media for the remainder of the assay.
Supernatants from infected HepG2-NTCP cells were collected at day 8 post infection, and the amount of viral antigen HBeAg was measured by HBeAg AlphaLISA detection kit (PerkinElmer) following the manufacturer's recommended protocol. Irrespective of readout, compound concentrations that reduce viral product accumulation in supernatants by […] relative to DMSO controls (EC50) are reported. EC50 ranges are as follows: A<0.1 μM; B 0.1-1 μM; C>1 μM.
The term EC50 denotes the concentration that produces a half-maximal response. `CN1[C@H](C2CCOCC2)CN(c2ccccc2)c2cc(Cl)c(-c3ccc(F)c(C(=O)O)c3)cc2S1(=O)=O` [Example 105, (R)-5-(7-chloro-2-methyl-1,1-dioxido-5-phenyl-3-(tetrahydro-2H-pyran-4-yl)-2,3,4,5-tetrahydrobenzo[f][1,2,5]thiadiazepin-8-yl)-2-fluorobenzoic acid]: the EC50 fell in the range of 100 to 1000 nM.

As for `CN1[C@H](C2CCCCC2)CN(c2ccccc2)c2cc(O[C@@H]3CCN(C(=O)OC(C)(C)C)C3)c(-c3ccc(F)c(C(=O)O)c3)cc2S1(=O)=O` [Example 397], the half-maximal effective concentration (EC50) was less than 100 nM. In the case of `CN1[C@H](C2CCCCC2)CN(c2ccccc2)c2cc(Cl)c(-c3cc(NC(=O)OCCC(F)(F)F)c(C(=O)O)s3)cc2S1(=O)=O` [Example 245] it was 100 to 1000 nM; in that of `CC(C)C[C@@H]1CN(c2ccccc2)c2cc(OCCc3ccoc3)c(-c3ccc(F)c(C(=O)O)c3)cc2S(=O)(=O)N1C` [Example 461], less than 100 nM.

As to `Cc1ccc(C(=O)O)c(C)c1-c1cc2c(cc1Cl)N(c1ccccc1)C[C@@H](C1CCCCC1)N(C)S2(=O)=O` [Example 146, 3-((3R)-7-chloro-3-cyclohexyl-2-methyl-1,1-dioxido-5-phenyl-2,3,4,5-tetrahydrobenzo[f][1,2,5]thiadiazepin-8-yl)-2,4-dimethylbenzoic acid], the EC50 was greater than 1000 nM. In the case of `CN1[C@H](C2CCCCC2)CN(c2ccccc2)c2cc(OCc3ccc(OC(F)(F)F)cc3)c(-c3cc(F)c(C(=O)O)s3)cc2S1(=O)=O` [Example 507] it was less than 100 nM. In the case of `CN1[C@H](C2CCCCC2)CN(c2ccccc2)c2cc(OCc3ccccc3)c(-c3ccc(F)c(C(=O)O)c3)cc2S1(=O)=O` [Example 332, (R)-5-(7-(benzyloxy)-3-cyclohexyl-2-methyl-1,1-dioxido-5-phenyl-2,3,4,5-tetrahydrobenzo[f][1,2,5]thiadiazepin-8-yl)-2-fluorobenzoic acid], the EC50 was less than 100 nM. `CN1[C@H](C2CCCCC2)CN(c2ccccc2)c2cc(OCc3csc(Cl)c3)c(-c3cc(F)c(C(=O)O)s3)cc2S1(=O)=O` [Example 487]: the EC50 was less than 100 nM. In the case of `CN1[C@H](C2CCCCC2)CN(c2cc(F)cc(F)c2)c2cc(Cl)c(-c3ccc(F)c(C(=O)O)c3)cc2S1(=O)=O` [Example 297] it was less than 100 nM; in that of `CC(C)[C@@H]1CN(c2ccccc2)c2cc(Cl)c(-c3ccc(F)c(C(=O)O)c3)cc2S(=O)(=O)N1C` [Example 61, (R)-5-(7-chloro-3-isopropyl-2-methyl-1,1-dioxido-5-phenyl-2,3,4,5-tetrahydrobenzo[f][1,2,5]thiadiazepin-8-yl)-2-fluorobenzoic acid], 100 to 1000 nM. For the compound `CN1[C@H](C2CC=CCO2)CN(c2ccccc2)c2cc(Cl)c(-c3ccc(F)c(C(=O)O)c3)cc2S1(=O)=O` (single isomer, unassigned) [Example 103], the half-maximal effective concentration (EC50) was in the range of 100 to 1000 nM.

Take `CN1[C@H](C2CCC2)CN(c2ccccc2)c2cc(OC(C)(C)C)c(-c3ccc(F)c(C(=O)O)c3)cc2S1(=O)=O` [Example 465]: the EC50 lay within 100 to 1000 nM. As to `CN1[C@H](C2CCCCC2)CN(c2ccccc2)c2cc(OC3CCN(C(=O)OC(C)(C)C)CC3)c(-c3ccc(F)c(C(=O)O)c3)cc2S1(=O)=O` [Example 393, (R)-5-(7-((1-(tert-butoxycarbonyl)piperidin-4-yl)oxy)-3-cyclohexyl-2-methyl-1,1-dioxido-5-phenyl-2,3,4,5-tetrahydrobenzo[f][1,2,5]thiadiazepin-8-yl)-2-fluorobenzoic acid], the 50% effective concentration (EC50) was less than 100 nM. For `CN1[C@H](C2CCCCC2)CN(c2ccccc2)c2cc(O[C@H]3C[C@@H](F)C3)c(-c3ccc(F)c(C(=O)O)c3)cc2S1(=O)=O` [Example 380] the value was less than 100 nM; for `CN1[C@H](C2CCCCC2)CN(c2ccccc2)c2cc(C3CCN(C(=O)c4ccno4)CC3)c(-c3ccc(F)c(C(=O)O)c3)cc2S1(=O)=O` [Example 599], greater than 1000 nM.

Regarding `CC(C)CC1CN(c2ccccc2)c2cc(N3CCCCC3)c(-c3cccc(C(=O)O)c3)cc2S(=O)(=O)N1C` (stereo not drawn) [Example 545], the EC50 is less than 100 nM. For `CC(C)C[C@@H]1CN(c2ccccc2)c2cc(Oc3cccc(Cl)c3)c(-c3ccc(F)c(C(=O)O)c3)cc2S(=O)(=O)N1C` [Example 432] the value was 100 to 1000 nM. With `CN1[C@H](C2CCCCC2)CN(c2cccc(C#N)c2)c2cc(Cl)c(-c3ccc(F)c(C(=O)O)c3)cc2S1(=O)=O` [Example 291], the EC50 is less than 100 nM.

For the compound `CN1[C@H](C2CCCCC2)CN(c2ccc(C(F)F)cc2)c2cc(Cl)c(-c3ccc(F)c(C(=O)O)c3)cc2S1(=O)=O` [Example 303], the EC50 lay within 100 to 1000 nM. For `CC(C)C[C@@H]1CN(c2ccccc2)c2cc(Cl)c(-c3ccc([N+](=O)[O-])c(C(=O)O)c3)cc2S(=O)(=O)N1C` [Example 183] the value was less than 100 nM; for `CN1[C@H](C2CCCCC2)CN(c2ccccc2)c2cc(OCC3CN(C(=O)OC(C)(C)C)C3)c(-c3cc(F)c(C(=O)O)s3)cc2S1(=O)=O` [Example 509], less than 100 nM. In the case of `CN1[C@H](C2CCCCC2)CN(c2ccccc2)c2cc(OC3CCC(C)(C)CC3)c(-c3ccc(F)c(C(=O)O)c3)cc2S1(=O)=O` [Example 386] it was 100 to 1000 nM; in that of `CSc1cc2c(cc1-c1cncc(C(=O)O)c1)S(=O)(=O)N1CC(C)(C)CC1CN2c1ccccc1` (stereo not drawn) [Example 21], 100 to 1000 nM; in that of `CC(C)C[C@@H]1CN(c2ccccc2)c2cc(OCc3ccccn3)c(-c3ccc(F)c(C(=O)O)c3)cc2S(=O)(=O)N1C` [Example 459], less than 100 nM. In the case of `CC(C)C[C@@H]1CN(c2ccccc2)c2cc(Cl)c(-c3ccc(C4=CCC(C)(C)CC4)c(C(=O)O)c3)cc2S(=O)(=O)N1C` [Example 217] it was greater than 1000 nM; in that of `CC(C)C[C@@H]1CN(c2ccccc2)c2cc(Cl)c(-c3ccc(OC(F)(F)F)c(C(=O)O)c3)cc2S(=O)(=O)N1C` [Example 163, (R)-5-(7-chloro-3-isobutyl-2-methyl-1,1-dioxido-5-phenyl-2,3,4,5-tetrahydrobenzo[f][1,2,5]thiadiazepin-8-yl)-2-(trifluoromethoxy)benzoic acid], less than 100 nM. In the case of `CCCCCCOc1cc2c(cc1-c1ccc(F)c(C(=O)O)c1)S(=O)(=O)N(C)[C@H](C1CCCCC1)CN2c1ccccc1` [Example 352], the 50% effective concentration (EC50) is less than 100 nM. In the case of `CC(C)C[C@@H]1CN(c2ccccc2)c2cc(OC(C)(C)c3ccccc3)c(-c3ccc(Cl)c(C(=O)O)c3)cc2S(=O)(=O)N1C` [Example 455] it was 100 to 1000 nM. For `CC(C)C[C@@H]1CN(c2ccccc2)c2cc(N(C)c3ccccc3F)c(-c3ccc(Cl)c(C(=O)O)c3)cc2S(=O)(=O)N1C` [Example 556] the value was 100 to 1000 nM. Consider `CN1[C@H](CN2CCC(F)(F)C2)CN(c2ccccc2)c2cc(Cl)c(-c3ccc(F)c(C(=O)O)c3)cc2S1(=O)=O` [Example 111], for which the EC50 was greater than 1000 nM.

In the case of `CC(C)C[C@@H]1CN(c2ccccc2)c2cc(Cl)c(-c3cccc(S(N)(=O)=O)c3)cc2S(=O)(=O)N1C` [Example 168], the EC50 was greater than 1000 nM.

Turning to `CN1[C@H](C2CCCCC2)CN(c2cccc(C(F)(F)F)c2)c2cc(Cl)c(-c3ccc(F)c(C(=O)O)c3)cc2S1(=O)=O` [Example 301], the half-maximal effective concentration (EC50) was in the range of 100 to 1000 nM. As for `CN1[C@H](C2CCCCC2)CN(c2ccccc2)c2cc(OCC(F)(F)F)c(-c3ccc(NC(=O)OCc4ccccc4)c(C(=O)O)c3)cc2S1(=O)=O` [Example 480], the EC50 is less than 100 nM.

Turning to `CCC[C@@H]1CN(c2ccccc2)c2cc(Cl)c(-c3ccc(Cl)c(C(=O)O)c3)cc2S(=O)(=O)N1C` [Example 48], the concentration for a half-maximal effect (EC50) is less than 100 nM. In the case of `CC(C)CC1CN(C2CCC2)c2cc(Cl)c(-c3cccc(C(=O)O)c3)cc2S(=O)(=O)N1C` (stereo not drawn) [Example 328] it was 100 to 1000 nM; in that of `CC(C)C[C@@H]1CN(c2ccccc2)c2cc(Cl)c(-c3ccc(N4CCCCC4)c(C(=O)O)c3)cc2S(=O)(=O)N1C` [Example 219, (R)-5-(7-chloro-3-isobutyl-2-methyl-1,1-dioxido-5-phenyl-2,3,4,5-tetrahydrobenzo[f][1,2,5]thiadiazepin-8-yl)-2-(piperidin-1-yl)benzoic acid], greater than 1000 nM. For `CC(C)CC1CN(c2ccc(F)cc2)c2cc(Cl)c(-c3cccc(C(=O)O)c3)cc2S(=O)(=O)N1C` (stereo not drawn) [Example 331] the value was 100 to 1000 nM. For the compound `CN1[C@H](C2CCCCC2)CN(c2ccc(C(F)(F)F)cc2)c2cc(Cl)c(-c3ccc(F)c(C(=O)O)c3)cc2S1(=O)=O` [Example 300], the EC50 was less than 100 nM.

Take `CO[C@H]1C[C@H](N2C[C@@H](CC(C)C)N(C)S(=O)(=O)c3cc(-c4ccc(F)c(C(=O)O)c4)c(Oc4ccccc4F)cc32)C1` [Example 472]: the EC50 fell in the range of 100 to 1000 nM.

`Cc1sccc1COc1cc2c(cc1-c1ccc(F)c(C(=O)O)c1)S(=O)(=O)N(C)[C@H](C1CCCCC1)CN2c1ccccc1` [Example 339]: the EC50 is less than 100 nM. For `CN1[C@H](C2CCCCC2)CN(c2ccccc2)c2cc(Cl)c(-c3ccnc(C(=O)O)c3)cc2S1(=O)=O` [Example 137, (R)-4-(7-chloro-3-cyclohexyl-2-methyl-1,1-dioxido-5-phenyl-2,3,4,5-tetrahydrobenzo[f][1,2,5]thiadiazepin-8-yl)picolinic acid] the value was 100 to 1000 nM; for `CCCCCCCCCCOc1cc2c(cc1-c1ccc(F)c(C(=O)O)c1)S(=O)(=O)N(C)[C@H](C1CCCCC1)CN2c1ccccc1` [Example 354], 100 to 1000 nM.
